Patent publication US9266878B2, “Phosphatidylinositol 3-kinase inhibitors” (Gilead Calistoga LLC, priority 2012, dated 2016)

What was measured:
Assay in all cases: Enzymatic activity of PI3K isoforms, TR-FRET assay (PIP3 formation)
Format in all cases: biochemical
[1] = target: PI3Kγ (Homo sapiens (Human), UniProt P48736)
Method in brief: (§1)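 IC50 (nM) reflects inhibition of PIP3 formation by purified recombinant heterodimeric PI3K, measured as loss of TR-FRET signal. The read-out comes from competition between enzyme-made PIP3 and labelled PIP3 for binding to the GRP-1 pleckstrin homology domain.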

[2] = target: PI3Kβ (Homo sapiens (Human), UniProt P42338)
Method in brief: as §1

[3] = target: PI3Kδ (Homo sapiens (Human), UniProt O00329); conditions: bound given in nM
Method in brief: (§2)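 After 30 min at 25° C, reactions were quenched with 10 mM EDTA plus 10 nM labeled-PIP3 and 35 nM Europium-GRP-1, and TR-FRET was read (Ex 340, Em 615/665 nm). Enzymes were purified recombinant heterodimers; product PIP3 competes off the labeled tracer. Values given as IC50, nM.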

[4] = target: PI3Kα (Homo sapiens (Human), UniProt P42336)
Method in brief: as §2

PI3Kδ, sequence (O00329 whole entry): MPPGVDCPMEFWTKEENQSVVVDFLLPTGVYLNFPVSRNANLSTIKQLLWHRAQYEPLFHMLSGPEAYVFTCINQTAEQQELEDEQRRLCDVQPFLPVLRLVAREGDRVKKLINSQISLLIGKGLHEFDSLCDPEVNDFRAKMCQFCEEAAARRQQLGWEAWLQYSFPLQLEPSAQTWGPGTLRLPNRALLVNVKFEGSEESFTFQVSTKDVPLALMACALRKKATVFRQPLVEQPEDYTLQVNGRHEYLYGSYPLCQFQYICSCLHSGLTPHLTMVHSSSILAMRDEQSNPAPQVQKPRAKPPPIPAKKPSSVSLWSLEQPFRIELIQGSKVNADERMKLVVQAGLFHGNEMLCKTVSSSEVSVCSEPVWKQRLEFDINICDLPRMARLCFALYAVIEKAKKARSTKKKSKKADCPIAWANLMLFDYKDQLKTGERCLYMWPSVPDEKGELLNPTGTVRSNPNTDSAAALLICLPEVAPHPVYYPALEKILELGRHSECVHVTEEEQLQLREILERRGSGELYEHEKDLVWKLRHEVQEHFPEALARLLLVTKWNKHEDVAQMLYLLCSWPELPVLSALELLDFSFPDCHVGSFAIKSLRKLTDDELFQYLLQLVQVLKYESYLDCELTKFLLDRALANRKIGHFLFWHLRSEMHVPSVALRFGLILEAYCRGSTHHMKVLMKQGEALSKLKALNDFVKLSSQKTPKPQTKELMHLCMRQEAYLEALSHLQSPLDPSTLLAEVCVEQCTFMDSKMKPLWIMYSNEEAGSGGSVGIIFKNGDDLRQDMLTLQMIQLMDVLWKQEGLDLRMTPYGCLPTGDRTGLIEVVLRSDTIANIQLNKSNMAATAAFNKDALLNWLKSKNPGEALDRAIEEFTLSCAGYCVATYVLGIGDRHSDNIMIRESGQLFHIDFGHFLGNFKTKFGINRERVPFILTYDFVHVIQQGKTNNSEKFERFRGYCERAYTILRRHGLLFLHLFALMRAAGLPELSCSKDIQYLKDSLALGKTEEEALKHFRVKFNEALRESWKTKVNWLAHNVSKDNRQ
PI3Kδ, sequence (P27986 whole entry partner): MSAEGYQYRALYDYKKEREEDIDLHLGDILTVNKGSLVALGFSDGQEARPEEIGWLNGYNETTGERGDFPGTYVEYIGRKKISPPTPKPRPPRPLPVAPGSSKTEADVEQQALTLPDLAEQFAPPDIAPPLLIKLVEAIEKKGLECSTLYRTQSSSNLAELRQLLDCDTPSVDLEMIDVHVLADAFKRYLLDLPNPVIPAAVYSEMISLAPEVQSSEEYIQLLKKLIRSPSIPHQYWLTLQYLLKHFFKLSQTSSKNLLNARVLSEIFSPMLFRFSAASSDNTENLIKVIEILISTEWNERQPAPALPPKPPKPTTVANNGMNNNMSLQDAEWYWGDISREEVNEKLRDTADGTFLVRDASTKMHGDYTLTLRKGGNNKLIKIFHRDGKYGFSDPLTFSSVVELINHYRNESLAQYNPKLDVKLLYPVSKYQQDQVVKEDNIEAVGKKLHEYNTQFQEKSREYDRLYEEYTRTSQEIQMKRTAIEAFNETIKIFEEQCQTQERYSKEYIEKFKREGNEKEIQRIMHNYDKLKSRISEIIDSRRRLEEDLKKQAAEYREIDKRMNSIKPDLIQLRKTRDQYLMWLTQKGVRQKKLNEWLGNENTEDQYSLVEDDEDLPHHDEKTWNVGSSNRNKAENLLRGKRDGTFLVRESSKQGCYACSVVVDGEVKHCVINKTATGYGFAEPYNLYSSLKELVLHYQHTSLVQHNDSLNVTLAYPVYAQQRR
PI3Kα, sequence (P42336 whole entry): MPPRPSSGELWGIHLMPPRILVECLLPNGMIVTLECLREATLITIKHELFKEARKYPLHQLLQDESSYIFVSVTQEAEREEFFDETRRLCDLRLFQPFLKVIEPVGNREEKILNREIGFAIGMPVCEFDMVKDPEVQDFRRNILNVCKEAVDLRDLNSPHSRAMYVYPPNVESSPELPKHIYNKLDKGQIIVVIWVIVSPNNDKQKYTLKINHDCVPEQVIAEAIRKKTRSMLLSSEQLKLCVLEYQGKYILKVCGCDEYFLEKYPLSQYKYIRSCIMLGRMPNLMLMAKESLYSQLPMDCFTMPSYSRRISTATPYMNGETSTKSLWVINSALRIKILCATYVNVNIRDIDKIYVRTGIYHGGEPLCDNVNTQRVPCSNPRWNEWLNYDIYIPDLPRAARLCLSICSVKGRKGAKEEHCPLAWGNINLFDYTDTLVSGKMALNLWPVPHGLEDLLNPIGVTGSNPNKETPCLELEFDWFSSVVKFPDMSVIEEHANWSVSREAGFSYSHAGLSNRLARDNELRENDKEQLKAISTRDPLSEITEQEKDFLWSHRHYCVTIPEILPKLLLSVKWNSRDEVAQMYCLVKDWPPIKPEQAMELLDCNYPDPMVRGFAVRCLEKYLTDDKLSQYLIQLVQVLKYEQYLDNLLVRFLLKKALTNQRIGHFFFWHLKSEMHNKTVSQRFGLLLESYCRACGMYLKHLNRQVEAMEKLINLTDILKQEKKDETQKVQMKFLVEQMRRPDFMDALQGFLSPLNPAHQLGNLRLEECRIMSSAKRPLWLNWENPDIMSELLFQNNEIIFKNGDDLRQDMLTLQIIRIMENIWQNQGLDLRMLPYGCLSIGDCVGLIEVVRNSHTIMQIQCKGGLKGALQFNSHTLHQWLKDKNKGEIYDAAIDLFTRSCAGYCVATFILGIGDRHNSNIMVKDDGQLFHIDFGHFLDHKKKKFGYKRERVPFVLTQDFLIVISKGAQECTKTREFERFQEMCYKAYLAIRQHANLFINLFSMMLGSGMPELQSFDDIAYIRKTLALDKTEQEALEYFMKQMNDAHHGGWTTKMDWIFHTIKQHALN
PI3Kα, sequence (P27986 whole entry partner): as the sequence (P27986 whole entry partner) above
PI3Kγ, sequence (P48736 whole entry, the tested form may be a part): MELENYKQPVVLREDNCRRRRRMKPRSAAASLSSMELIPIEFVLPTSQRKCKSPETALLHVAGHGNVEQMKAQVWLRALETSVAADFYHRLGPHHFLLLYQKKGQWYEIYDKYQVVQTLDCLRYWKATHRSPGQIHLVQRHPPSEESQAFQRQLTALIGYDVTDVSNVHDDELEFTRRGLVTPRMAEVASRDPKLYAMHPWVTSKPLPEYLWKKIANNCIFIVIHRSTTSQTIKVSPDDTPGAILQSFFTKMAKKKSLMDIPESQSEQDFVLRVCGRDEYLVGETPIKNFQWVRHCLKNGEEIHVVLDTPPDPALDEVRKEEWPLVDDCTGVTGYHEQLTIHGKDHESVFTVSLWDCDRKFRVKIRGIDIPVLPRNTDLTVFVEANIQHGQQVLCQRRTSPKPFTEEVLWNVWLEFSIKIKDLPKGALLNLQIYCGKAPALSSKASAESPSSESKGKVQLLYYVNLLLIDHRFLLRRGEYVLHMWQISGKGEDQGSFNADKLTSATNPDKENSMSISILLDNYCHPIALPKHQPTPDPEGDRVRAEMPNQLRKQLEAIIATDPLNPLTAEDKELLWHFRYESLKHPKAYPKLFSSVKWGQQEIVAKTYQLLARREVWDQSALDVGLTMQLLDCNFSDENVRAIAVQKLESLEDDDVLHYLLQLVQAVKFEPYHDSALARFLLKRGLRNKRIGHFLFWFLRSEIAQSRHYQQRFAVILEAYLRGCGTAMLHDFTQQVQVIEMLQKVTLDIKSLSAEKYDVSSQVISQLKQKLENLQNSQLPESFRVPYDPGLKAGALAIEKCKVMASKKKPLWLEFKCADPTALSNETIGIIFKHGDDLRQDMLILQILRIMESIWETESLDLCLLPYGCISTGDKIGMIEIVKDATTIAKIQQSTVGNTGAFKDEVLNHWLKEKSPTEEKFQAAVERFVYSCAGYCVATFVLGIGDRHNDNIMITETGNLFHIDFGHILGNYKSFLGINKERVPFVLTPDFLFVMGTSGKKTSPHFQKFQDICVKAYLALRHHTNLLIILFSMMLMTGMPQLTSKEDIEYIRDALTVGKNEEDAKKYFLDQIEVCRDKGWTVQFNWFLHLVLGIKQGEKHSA
PI3Kγ, sequence (Q8WYR1 whole entry partner, the tested form may be a part): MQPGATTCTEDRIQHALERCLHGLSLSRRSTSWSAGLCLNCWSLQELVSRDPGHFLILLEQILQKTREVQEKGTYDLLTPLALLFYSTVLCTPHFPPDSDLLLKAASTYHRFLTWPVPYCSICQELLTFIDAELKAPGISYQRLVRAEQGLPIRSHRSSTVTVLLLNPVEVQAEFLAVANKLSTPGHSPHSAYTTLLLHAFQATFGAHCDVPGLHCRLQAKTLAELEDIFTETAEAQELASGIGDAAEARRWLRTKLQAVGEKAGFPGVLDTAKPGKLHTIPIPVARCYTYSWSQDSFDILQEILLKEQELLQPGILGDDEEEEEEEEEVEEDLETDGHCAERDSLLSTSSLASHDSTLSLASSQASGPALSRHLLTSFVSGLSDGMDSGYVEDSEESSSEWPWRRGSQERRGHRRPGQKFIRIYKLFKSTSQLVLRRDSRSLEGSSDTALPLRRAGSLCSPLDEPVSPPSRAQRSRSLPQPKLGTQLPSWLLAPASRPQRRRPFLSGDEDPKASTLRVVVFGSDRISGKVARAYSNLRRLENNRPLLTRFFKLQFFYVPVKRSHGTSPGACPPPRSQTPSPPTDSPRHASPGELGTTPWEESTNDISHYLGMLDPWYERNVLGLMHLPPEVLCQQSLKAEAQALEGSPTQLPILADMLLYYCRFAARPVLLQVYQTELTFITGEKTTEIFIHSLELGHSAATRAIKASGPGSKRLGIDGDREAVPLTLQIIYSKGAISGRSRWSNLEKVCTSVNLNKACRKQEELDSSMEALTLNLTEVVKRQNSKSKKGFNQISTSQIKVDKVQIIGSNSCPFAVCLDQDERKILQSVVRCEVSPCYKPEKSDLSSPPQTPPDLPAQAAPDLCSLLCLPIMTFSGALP

SMILES | IC50 ([1]; bound given in nM) [nM] | IC50 ([2]; bound given in nM) [nM] | IC50 [3] [nM] | IC50 ([4]; bound given in nM) [nM] | IC50 ([1]; bound given in uM) [nM] | IC50 ([2]; bound given in uM) [nM] | IC50 ([4]; bound given in uM) [nM]
C[C@H](Nc1ncnc(N)c1C#Cc1ccc(N)cn1)c1nc2cccc(Cl)c2c(=O)n1-c1ccccc1 [Compound 35a, (S)-2-(1-(6-amino-5-((5-aminopyridin-2-yl)ethynyl)pyrimidin-4-ylamino)ethyl)-5-chloro-3-phenylquinazolin-4(3H)-one] | < 100 | < 100 | < 100 | < 100 | – | – | –
C[C@H](Nc1ncnc(N)c1C#Cc1cnccn1)c1nc2cccc(Cl)c2c(=O)n1-c1cc(F)cc(F)c1 [Compound 85a, (S)-2-(1-((6-amino-5-(pyrazin-2-ylethynyl)pyrimidin-4-yl)amino)ethyl)-5-chloro-3-(3,5-difluorophenyl)quinazolin-4(3H)-one] | – | – | < 100 | – | > 1000 | > 1000 | > 1000
C[C@H](Nc1ncnc(N)c1C#Cc1cnccn1)c1nc2cccc(S(C)(=O)=O)c2c(=O)n1-c1ccccc1 [Compound 113a, (S)-2-(1-((6-amino-5-(pyrazin-2-ylethynyl)pyrimidin-4-yl)amino)ethyl)-5-(methylsulfonyl)-3-phenylquinazolin-4(3H)-one] | – | – | < 100 | – | > 1000 | > 1000 | > 1000
COc1cc(F)cc(C#Cc2c(N)ncnc2N[C@@H](C)c2nc3c(F)cccc3c(=O)n2-c2ccccc2)c1 [Compound 64a, (S)-2-(1-((6-amino-5-((3-fluoro-5-methoxyphenyl)ethynyl)pyrimidin-4-yl)amino)ethyl)-8-fluoro-3-phenylquinazolin-4(3H)-one] | – | – | < 100 | – | > 1000 | > 1000 | > 1000
C[C@H](Nc1ncnc(N)c1C#Cc1ccc(F)cn1)c1nc2cccc(Cl)c2c(=O)n1-c1cccc(-c2ccccc2)c1 [Compound 60a, (S)-3-([1,1′-biphenyl]-3-yl)-2-(1-((6-amino-5-((5-fluoropyridin-2-yl)ethynyl)pyrimidin-4-yl)amino)ethyl)-5-chloroquinazolin-4(3H)-one] | – | – | < 100 | – | > 1000 | > 1000 | > 1000
C[C@H](Nc1ncnc(N)c1C#Cc1cncnc1)c1nc2cccc(Cl)c2c(=O)n1-c1cc(F)cc(F)c1 [Compound 41a, (S)-2-(1-(6-amino-5-(pyrimidin-5-ylethynyl)pyrimidin-4-ylamino)ethyl)-5-chloro-3-(3,5-difluorophenyl)quinazolin-4(3H)-one] | – | – | < 100 | – | > 1000 | > 1000 | > 1000
C[C@H](Nc1ncnc(N)c1C#Cc1cnccn1)c1nc2cccc(Cl)c2c(=O)n1C1C[C@H]2CC[C@@H](C1)N2C (stereo partly drawn) [Compound 124a, 2-((S)-1-((6-amino-5-(pyrazin-2-ylethynyl)pyrimidin-4-yl)amino)ethyl)-5-chloro-3-((1R,5S)-8-methyl-8-azabicyclo[3.2.1]octan-3-yl)quinazolin-4(3H)-one] | – | – | < 100 | – | > 1000 | > 1000 | > 1000
C[C@H](Nc1ncnc(N)c1C#Cc1ccc(F)cn1)c1nc2cccc(C(F)F)c2c(=O)n1-c1cc(F)cc(F)c1 [Compound 77a, (S)-2-(1-((6-amino-5-((5-fluoropyridin-2-yl)ethynyl)pyrimidin-4-yl)amino)ethyl)-5-(difluoromethyl)-3-(3,5-difluorophenyl)quinazolin-4(3H)-one] | – | – | < 100 | – | > 1000 | > 1000 | > 1000
CC(C)OC(=O)c1ccc(C#Cc2c(N)ncnc2N[C@@H](C)c2nc3cccc(Cl)c3c(=O)n2-c2ccccc2)nc1 [Compound 137a, (S)-isopropyl 6-((4-amino-6-((1-(5-chloro-4-oxo-3-phenyl-3,4-dihydroquinazolin-2-yl)ethyl)amino)pyrimidin-5-yl)ethynyl)nicotinate] | – | – | – | – | > 1000 | > 1000 | > 1000
C[C@H](Nc1ncnc(N)c1C#Cc1cn[nH]c1)c1nc2cccc(Cl)c2c(=O)n1-c1ccccc1 [Compound 49a, (S)-2-(1-(5-((1H-pyrazol-4-yl)ethynyl)-6-aminopyrimidin-4-ylamino)ethyl)-5-chloro-3-phenylquinazolin-4(3H)-one] | < 100 | < 100 | < 100 | – | – | – | –
C[C@H](Nc1ncnc(N)c1C#Cc1cc(C(=O)O)ccn1)c1nc2cccc(Cl)c2c(=O)n1-c1ccccc1 [Compound 160a, (S)-2-((4-amino-6-((1-(5-chloro-4-oxo-3-phenyl-3,4-dihydroquinazolin-2-yl)ethyl)amino)pyrimidin-5-yl)ethynyl)isonicotinic acid] | – | < 100 | < 100 | – | > 1000 | – | –
C[C@H](Nc1ncnc(N)c1C#Cc1ccc(OC(F)(F)F)cc1)c1nc2cccc(Cl)c2c(=O)n1-c1cc(F)cc(F)c1 [Compound 26a, (S)-2-(1-(6-amino-5-((4-(trifluoromethoxy)phenyl)ethynyl)pyrimidin-4-ylamino)ethyl)-5-chloro-3-(3,5-difluorophenyl)quinazolin-4(3H)-one] | – | – | – | – | > 1000 | > 1000 | > 1000
C[C@H](Nc1ncnc(N)c1C#Cc1cccc(CO)n1)c1nc2cccc(Cl)c2c(=O)n1-c1ccccc1 [Compound 155a, (S)-2-(1-((6-amino-5-((6-(hydroxymethyl)pyridin-2-yl)ethynyl)pyrimidin-4-yl)amino)ethyl)-5-chloro-3-phenylquinazolin-4(3H)-one] | < 100 | > 1 | < 100 | – | – | – | –
C[C@H](Nc1ncnc(N)c1C#Cc1ccccn1)c1nc2cccc(Cl)c2c(=O)n1-c1cccc(C(N)=O)c1 [Compound 38a, (S)-3-(2-(1-(6-amino-5-(pyridin-2-ylethynyl)pyrimidin-4-ylamino)ethyl)-5-chloro-4-oxoquinazolin-3(4H)-yl)benzamide] | – | < 100 | < 100 | – | > 1000 | – | –
C[C@H](Nc1ncnc(N)c1C#Cc1ccc2nc(N)sc2c1)c1nc2cccc(Cl)c2c(=O)n1-c1ccccc1 [Compound 46a, (S)-2-(1-(6-amino-5-((2-aminobenzo [d]thiazol-6-yl)ethynyl)pyrimidin-4-ylamino)ethyl)-5-chloro-3-phenylquinazolin-4(3H)-one] | < 100 | < 100 | < 100 | – | – | – | –
C[C@H](Nc1ncnc(N)c1C#Cc1ccccc1)c1nc2cccc(Cl)c2c(=O)n1-c1ccccc1 [Compound 51a, (S)-2-(1-(6-amino-5-(phenylethynyl)pyrimidin-4-ylamino)ethyl)-5-chloro-3-phenylquinazolin-4(3H)-one] | < 100 | < 100 | < 100 | – | – | – | –
C[C@H](Nc1ncnc(N)c1C#Cc1ccc(F)cn1)c1nc2cccc(Cl)c2c(=O)n1-c1cccc(C(C)(C)C)c1 [Compound 59a, (S)-2-(1-((6-amino-5-((5-fluoropyridin-2-yl)ethynyl)pyrimidin-4-yl)amino)ethyl)-3-(3-(tert-butyl)phenyl)-5-chloroquinazolin-4(3H)-one] | – | – | – | – | > 1000 | > 1000 | > 1000
C[C@H](Nc1ncnc(N)c1C#Cc1cc(CO)ccn1)c1nc2cccc(Cl)c2c(=O)n1-c1ccccc1 [Compound 154a, (S)-2-(1-((6-amino-5-((4-(hydroxymethyl)pyridin-2-yl)ethynyl)pyrimidin-4-yl)amino)ethyl)-5-chloro-3-phenylquinazolin-4(3H)-one] | < 100 | < 100 | < 100 | – | – | – | –
C[C@H](Nc1ncnc(N)c1C#Cc1cccnn1)c1nc2cccc(Cl)c2c(=O)n1-c1ccccc1 [Compound 14a, (S)-2-(1-(6-amino-5-(pyridazin-3-ylethynyl)pyrimidin-4-ylamino)ethyl)-5-chloro-3-phenylquinazolin-4(3H)-one] | – | – | – | – | > 1000 | > 1000 | > 1000
C[C@H](Nc1ncnc(N)c1C#Cc1ccc(F)cn1)c1nc2cccc(Cl)c2c(=O)n1-c1cccc(S(C)(=O)=O)c1 [Compound 58a, (S)-2-(1-((6-amino-5-((5-fluoropyridin-2-yl)ethynyl)pyrimidin-4-yl)amino)ethyl)-5-chloro-3-(3-(methylsulfonyl)phenyl)quinazolin-4(3H)-one] | – | – | – | – | > 1000 | > 1000 | > 1000
CC(O)c1cccc(C#Cc2c(N)ncnc2N[C@@H](C)c2nc3cccc(Cl)c3c(=O)n2-c2ccccc2)n1 (stereo partly drawn) [Compound 157a, 2-((1S)-1-((6-amino-5-((6-(1-hydroxyethyl)pyridin-2-yl)ethynyl)pyrimidin-4-yl)amino)ethyl)-5-chloro-3-phenylquinazolin-4(3H)-one] | – | < 100 | < 100 | – | – | – | > 1000
C[C@H](Nc1ncnc(N)c1C#Cc1ccc(C(N)=O)cn1)c1nc2cccc(Cl)c2c(=O)n1-c1cc(F)cc(F)c1 [Compound 136a, (S)-6-((4-amino-6-((1-(5-chloro-3-(3,5-difluorophenyl)-4-oxo-3,4-dihydroquinazolin-2-yl)ethyl)amino)pyrimidin-5-yl)ethynyl)nicotinamide] | – | – | < 100 | – | – | > 1000 | > 1000
Nc1ncnc(N2CCCC[C@H]2c2nc3cccc(Cl)c3c(=O)n2-c2ccccc2)c1C#Cc1ccccn1 [Compound 36a, (S)-2-(1-(6-amino-5-(pyridin-2-ylethynyl)pyrimidin-4-yl)piperidin-2-yl)-5-chloro-3-phenylquinazolin-4(3H)-one] | – | – | – | – | > 1000 | > 1000 | > 1000
C[C@H](Nc1ncnc(N)c1C#Cc1ccc(F)cn1)c1nc2cccc(C(F)F)c2c(=O)n1-c1ccccc1 [Compound 67a, (S)-2-(1-((6-amino-5-((5-fluoropyridin-2-yl)ethynyl)pyrimidin-4-yl)amino)ethyl)-5-(difluoromethyl)-3-phenylquinazolin-4(3H)-one] | – | – | < 100 | – | – | > 1000 | > 1000
